According to article PMC4303146, “Investigation of cyanine dyes for in vivo optical imaging of altered mitochondrial membrane potential in tumors” (Cancer Medicine, 2014):

Key:
[1] = Photophysical properties (fluorescence spectroscopy, quantum yield); format: physicochemical
Protocol: IC7-1 derivatives were dissolved in chloroform or 5% FBS to give a concentration of 1 μmol/L for fluorescence spectroscopy analysis. Excitation spectra were measured following the emission at 850 nm, and emission spectra were measured following excitation at 823 nm. Quantum yields were determined using a Fluorolog-3 spectrofluorometer equipped with an integrating sphere.

[2] = system: HeLa cells; experiment: Cellular localization study (fluorescence microscopy with NAO mitochondria marker); format: cell-based, human; conditions: 1 μmol/L, 60 min, NAO 100 nmol/L
Protocol: HeLa cells (3 × 10^5 cells) were cultured in a poly-L-lysine coated glass bottom dish for 24 h at 37°C before use. Cells were washed twice with phosphate-buffered saline (PBS) and then incubated with the IC7-1 derivative dissolved in dimethyl sulfoxide (DMSO) (1 μmol/L final concentration) in DMEM supplemented with 5% FBS and 1% penicillin and streptomycin for 60 min. To determine the dye localization, mitochondria were labeled with NAO (100 nmol/L final concentration) for 20 min before completion of the incubation with IC7-1 derivative. Next, the cells were washed twice each with DMEM and PBS. Cells were viewed with a fluorescence microscope under a 100× oil-immersion objective lens. MetaMorph® software (Molecular Devices, LLC, Sunnyvale, CA) was used for imaging analysis.

[3] = target: BSA (Bos taurus, UniProt P02769); experiment: Association constants of IC7-1 derivatives to albumin (fluorimetric titration); format: binding, bovine; conditions: dye 1 µM, BSA 0-1.0 µM, 30 min; read-out: Ka, association constant of dye-albumin complex (converted)
BSA, sequence (P02769 25-607): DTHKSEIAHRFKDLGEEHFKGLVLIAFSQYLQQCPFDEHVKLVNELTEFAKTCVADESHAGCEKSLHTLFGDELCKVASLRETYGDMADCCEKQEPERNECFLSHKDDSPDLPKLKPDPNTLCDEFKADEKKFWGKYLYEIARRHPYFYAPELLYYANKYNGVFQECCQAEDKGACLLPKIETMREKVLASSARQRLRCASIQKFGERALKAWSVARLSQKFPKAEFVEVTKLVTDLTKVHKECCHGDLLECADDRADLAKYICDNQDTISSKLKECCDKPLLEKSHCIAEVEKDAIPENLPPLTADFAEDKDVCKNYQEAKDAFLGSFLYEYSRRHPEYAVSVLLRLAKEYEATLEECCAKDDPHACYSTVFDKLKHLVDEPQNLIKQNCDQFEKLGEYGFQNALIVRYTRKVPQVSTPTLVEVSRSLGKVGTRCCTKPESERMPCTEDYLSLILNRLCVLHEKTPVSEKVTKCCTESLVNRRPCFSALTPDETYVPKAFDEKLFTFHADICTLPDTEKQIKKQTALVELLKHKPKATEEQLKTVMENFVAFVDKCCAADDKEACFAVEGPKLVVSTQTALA
Protocol: Binding studies of IC7-1 derivatives to albumin were conducted as reported previously (Beckford G et al. The solvatochromic effects of side chain substitution on the binding interaction of novel tricarbocyanine dyes with human serum albumin. Talanta 2012;92: 45-52). Briefly, IC7-1 derivatives (1 µM final concentration) were incubated with BSA (0, 0.4, 0.6, 0.8, and 1.0 µM) for 30 min to equilibrate. The fluorescence intensity was measured following the excitation at 823 nm and the emission from 840 to 900 nm. The interaction between dye D and albumin A can be expressed by Eq. 1:
The association constant for the dye-albumin complex formation can be expressed by Eq. 2:
Then, the association constant Ka of the dye-albumin complex was calculated from the data for the fluorimetric titration of the dye with albumin using Eq. 3:
1/ΔF = 1/k[D] + (1/(k[D]Ka))·(1/[A]) (3)
where k is a constant depending on the instrumentation and quantum efficiency of the process.
Therefore, a plot of the reciprocal of ΔF versus the reciprocal of albumin concentration gives a straight line. The association constant was calculated by dividing the intercept by the slope of the line.

[4] = system: HeLa cell xenograft; experiment: In vivo imaging study in HeLa cell xenograft mice; conditions: for Tumor fluorescence intensity group from ROI analysis / Liver accumulation and excretion: 10 nmol i.v.; for Liver accumulation and excretion: ventral imaging 3-72 h
Protocol: Animal experiments were conducted in accordance with institutional guidelines and were approved by the Kyoto University Animal Care Committee. […] HeLa cells (2 × 10^6 cells in 100 μL of PBS) were subcutaneously inoculated into the right hind legs of mice. Fourteen days after implantation, mice were used for the imaging study.
Clairvivo® OPT measurement and display software ver. 2.6.0.0. (SHIMADZU Co.) was used for imaging analysis.
Exposure time was 5s for the scan at 3 h, and 3s for the other scans. Clairvivo® OPT measurement and display software ver. 2.6.0.0. (SHIMADZU Co., Kyoto, Japan) was used for imaging analysis.

[5] = system: HeLa cells; experiment: Cellular uptake study with uncoupler CCCP; format: cell-based, human; conditions: dye 1 μmol/L, 60 min, CCCP 0-25 μmol/L
Protocol: A cellular uptake study was conducted as reported previously. Briefly, the buffer solution (pH 7.4) for the cellular uptake study was composed of NaCl ([…]), KCl (5.4 mmol/L), CaCl2 (1.2 mmol/L), MgSO4 (0.8 mmol/L), NaH2PO4 (0.8 mmol/L), dextrose (5.6 mmol/L), and 4-(2-hydroxyethyl)-1-piperazineethanesulfonic acid) (5 mmol/L). HeLa cells (1 × 10^6 cells/mL buffer solution) were incubated with carbonyl […] m-chlorophenylhydrazone (CCCP; 0, 0.1, 0.25, 0.5, 0.75, 1, 2.5, 5, 10, and 25 μmol/L) for 5 min at 37°C in 1.5 mL microtubes, followed by the addition of the IC7-1 derivative (1 μmol/L final concentration). After a 60-min incubation with the IC7-1 derivative, the cells were washed twice and resuspended with buffer solution. The fluorescence intensity was measured following the excitation at 823 nm and the emission from 840 to 900 nm, and the normalized intensity (%) was calculated as a percentage of fluorescence intensity obtained with CCCP untreated (0 μmol/L) cells.
The buffer solution (pH 7.4) for the cellular uptake study was composed of NaCl (145 mM), KCl (5.4 mM), CaCl2 (1.2 mM), MgSO4 (0.8 mM), NaH2PO4 (0.8 mM), dextrose (5.6 mM), and HEPES (5 mM). The HeLa cells (1 x 10^6 cells / ml buffer solution) were incubated with an uncoupler (CCCP; 0, 0.1, 0.25, 0.5, 0.75, 1, 2.5, 5, 10, and 25 µM) for 5 min at 37 °C in 1.5 mL microtubes, followed by the addition of IR-780 or IC7-1-Bu (1 µM final concentration) After a 60 min incubation with the dyes, the cells were washed twice and resuspended with buffer solution. Fluorescence intensity was measured following the excitation at 763 nm and the emission from 780 to 880 nm for IR-780, and the excitation at 823 nm and the emission from 840 to 900 nm for IC7-1-Bu. The normalized intensity (%) was calculated as a percentage of fluorescence intensity obtained with CCCP untreated (0 µM) cells.

[6] = target: T1, albumin-binding site I (warfarin-binding site) (Bos taurus, UniProt P02769); experiment: Protein-binding assay with competitive inhibitors in 5% FBS; format: in vitro ADME, bovine; conditions: 5% FBS, inhibitor 189 μmol/L, dye 1 μmol/L
T1 construct: incubated for 30 min in PBS (pH 7.4) containing 5% DMSO and 5% FBS; from tissue; host or cells: fetal bovine serum (5% in PBS)
T1 sequence (P02769 25-607): as above
Protocol: A protein-binding assay was conducted as reported previously. Briefly, warfarin, ibuprofen, digoxin, and quinidine were used as competitive inhibitors of albumin-binding sites I, II, III, and […], respectively. The inhibitors (0 and 189 μmol/L) were incubated for 30 min in PBS (pH 7.4) containing 5% DMSO and 5% FBS at room temperature. Immediately after the addition of the IC7-1 derivative (1 μmol/L final concentration), the fluorescence intensity was measured following the excitation at 823 nm and the emission from 840 to 900 nm. The normalized intensity (%) was calculated as a percentage of fluorescence intensity obtained from an inhibitor untreated sample.

| Φ, quantum yield ([1]; 5% FBS) | ε, extinction coefficient ([1]; 5% FBS) | emmax, maximum emission wavelength ([1]; 5% FBS, 1 μmol/L) | exmax, maximum excitation wavelength ([1]; 5% FBS, 1 μmol/L) | Φ, quantum yield ([1]; CHCl3) | ε, extinction coefficient ([1]; CHCl3) | emmax, maximum emission wavelength ([1]; CHCl3, 1 μmol/L) | exmax, maximum excitation wavelength ([1]; CHCl3, 1 μmol/L) | Kd [3] | Normalized fluorescence intensity with warfarin (albumin site I inhibitor) [6] | SMILES | Subcellular localization of NIR fluorescence [2] | Tumor fluorescence intensity group from ROI analysis [4] | Tumor depiction in fluorescence images ([4]; 10 nmol i.v., 24, 48 and 72 h) | Liver accumulation and excretion [4] | Normalized cellular fluorescence intensity under CCCP treatment [5] | Fluorescence intensity at the tumor region ([4]; 10 nmol i.v., 24, 48 and 72 h) |
| --- | --- | --- | --- | --- | --- | --- | --- | --- | --- | --- | --- | --- | --- | --- | --- | --- |
| 0.04 | 120000 mol/L/cm | 846 nm | 823 nm | 0.07 | 330000 mol/L/cm | 841 nm | 823 nm | 769 nM |  | CN1/C(=C/C=C2\CCCC(/C=C/C3=[N+](C)c4ccc5ccccc5c4C3(C)C)=C2Cl)C(C)(C)c2c1ccc1ccccc21 [IC7-1-Me, 3-Methyl-2-(2-{3-[2-(3-methyl-1,1-dimethyl-1,3-dihydro-benz[e]indol-2-ylidene)-ethylidene]-2-chloro-cyclohex-1-enyl}-vinyl)-1,1-dimethyl-1H-benz[e]indolium] | colocalized fluorescence with NAO | negligible intensity group | negligible signals from the whole body | accumulated in the liver, and were quickly excreted |  |  |
|  |  |  |  |  |  |  |  |  |  | CCCN1/C(=C/C=C2\CCCC(/C=C/C3=[N+](CCC)c4ccccc4C3(C)C)=C2Cl)C(C)(C)c2ccccc21.[I-] [IR-780, reference compound] |  |  |  |  | almost negligible effect of CCCP |  |
| 0.03 | 60000 mol/L/cm | 841 nm | 823 nm | 0.06 | 330000 mol/L/cm | 845 nm | 823 nm | 833 nM |  | CCCCCCN1/C(=C/C=C2\CCCC(/C=C/C3=[N+](CCCCCC)c4ccc5ccccc5c4C3(C)C)=C2Cl)C(C)(C)c2c1ccc1ccccc21 [IC7-1-He, 3-Hexyl-2-(2-{3-[2-(3-hexyl-1,1-dimethyl-1,3-dihydro-benz[e]indol-2-ylidene)-ethylidene]-2-chloro-cyclohex-1-enyl}-vinyl)-1,1-dimethyl-1H-benz[e]indolium] | weak or negligible fluorescence in the NIR region | negligible intensity group | negligible signals from the whole body |  | reduced cellular fluorescence from treatment with a low CCCP concentration | weak at all time points |
| 0.03 | 90000 mol/L/cm | 847 nm | 823 nm | 0.06 | 330000 mol/L/cm | 845 nm | 823 nm | 625 nM | specifically bound to albumin | CCCCCN1/C(=C/C=C2\CCCC(/C=C/C3=[N+](CCCCC)c4ccc5ccccc5c4C3(C)C)=C2Cl)C(C)(C)c2c1ccc1ccccc21 [IC7-1-Pe, 3-Pentyl-2-(2-{3-[2-(3-pentyl-1,1-dimethyl-1,3-dihydro-benz[e]indol-2-ylidene)-ethylidene]-2-chloro-cyclohex-1-enyl}-vinyl)-1,1-dimethyl-1H-benz[e]indolium] | weak or negligible fluorescence in the NIR region | mild intensity group | Tumors were clearly depicted |  | reduced cellular fluorescence from treatment with a low CCCP concentration |  |
| 0.04 | 130000 mol/L/cm | 847 nm | 823 nm | 0.06 | 330000 mol/L/cm | 842 nm | 823 nm | 556 nM |  | CCN1/C(=C/C=C2\CCCC(/C=C/C3=[N+](CC)c4ccc5ccccc5c4C3(C)C)=C2Cl)C(C)(C)c2c1ccc1ccccc21 [IC7-1-Et, 3-Ethyl-2-(2-{3-[2-(3-ethyl-1,1-dimethyl-1,3-dihydro-benz[e]indol-2-ylidene)-ethylidene]-2-chloro-cyclohex-1-enyl}-vinyl)-1,1-dimethyl-1H-benz[e]indolium] | colocalized fluorescence with NAO | negligible intensity group | negligible signals from the whole body | accumulated in the liver, and were quickly excreted |  |  |
| 0.05 | 130000 mol/L/cm | 843 nm | 823 nm | 0.07 | 330000 mol/L/cm | 845 nm | 823 nm | 417 nM | specifically bound to albumin | CCCN1/C(=C/C=C2\CCCC(/C=C/C3=[N+](CCC)c4ccc5ccccc5c4C3(C)C)=C2Cl)C(C)(C)c2c1ccc1ccccc21 [IC7-1-Pr, 3-Propyl-2-(2-{3-[2-(3-propyl-1,1-dimethyl-1,3-dihydro-benz[e]indol-2-ylidene)-ethylidene]-2-chloro-cyclohex-1-enyl}-vinyl)-1,1-dimethyl-1H-benz[e]indolium] | colocalized fluorescence with NAO | mild intensity group | Tumors were clearly depicted |  | reduced cellular fluorescence from treatment with a low CCCP concentration |  |
